These results are taken from patent US6525059B1, “Substituted pyrazoles as p38 kinase inhibitors” (G. D. Searle & Company, priority 1998, dated 2003).

Molecules are shown by their SMILES. Where a name gives a salt, the structure may show the parent alone. Some results are limits rather than exact numbers.

As for `COC(=O)N1CCN(c2[nH]nc(-c3ccc(Cl)cc3)c2-c2ccncc2)CC1` (hydrate or solvate) [Example A-319, methyl 4-[5-(4-chlorophenyl)-4-(4-pyridinyl)-1H-pyrazol-3-yl]-1-piperazinecarboxylate, monohydrate], the melting point fell in the range of 264 to 265 °C.
Then `CNC(=O)c1cc(-c2cn[nH]c2-c2ccc(F)cc2)ccn1` [Example A-225, 4-[3-(4-fluorophenyl)-1H-pyrazol-4-yl]-N-methyl-2-pyridinecarboxamide], with 88 to 89 °C; and `O.O.O=C(O)CCC(=O)N1CCN(c2n[nH]c(-c3ccc(Cl)cc3)c2-c2ccncc2)CC1` (hydrate or solvate) [A-321 (dihydrate), 4-[5-(4-chlorophenyl)-4-(4-pyridinyl)-1H-pyrazol-3-yl]-γ-oxo-1-piperazinebutanoic acid, dihydrate], with 281 to 283 °C (dec.); and `O=C(C(=C1SCS1)c1ccncc1)c1ccc(I)cc1` [Example A-401], with 257.6 to 257.7 °C.
The result for `O=C(Cc1ccncc1)c1ccc(Cl)cc1` [Example A-431] reads 95.5 to 97.3 °C; that for `CCc1cccc(-c2[nH]nc(CC)c2-c2ccncc2)c1` [Example A-187, 4-[3-ethyl-5-(3-ethylphenyl)-1H-pyrazol-4-yl]pyridine], 192.66 °C.
For `CC(C)(C)OC(=O)N1CCN(c2n[nH]c(-c3ccc(F)cc3)c2-c2ccncc2)CC1` [Example A-171, 1,1-dimethylethyl 4-[5-(4-fluorophenyl)-4-(4-pyridinyl)-1H-pyrazol-3-yl]-1-piperazinecarboxylate], the melting point was in the range of 243 to 244 °C.
Then `CN1CCN(c2n[nH]c(-c3cccs3)c2-c2ccncc2)CC1` [Example A-426], with 199.7 °C (dec.); and `Clc1cccc(-c2n[nH]cc2-c2ccnc(NCc3ccccc3)c2)c1` [Example A-220, 4-[3-(3-chlorophenyl)-1H-pyrazol-4-yl]-N-(phenylmethyl)-2-pyridinamine], with 179 to 180 °C; and `COC(=O)c1cc(-c2c[nH]nc2-c2ccc(F)cc2)ccn1` [Example A-224, Methyl 4-[3-(4-fluorophenyl)-1H-pyrazol-4-yl]-2-pyridinecarboxylate], with 239 to 241 °C.
`Fc1ccc(-c2[nH]nc(C(F)(F)F)c2-c2ccncc2)cc1` [Example A-190] showed a melting point of 281.94 °C.
The result for `Clc1ccc(-c2n[nH]c(OCCN3CCOCC3)c2-c2ccncc2)cc1` [Example A-440] reads 198.9 to 199.9 °C; that for `O=c1cc(-c2c(-c3ccncc3)c(-c3ccc(F)cc3)nn2CCO)cc[nH]1` [Example A-194, 4-[3-(4-fluorophenyl)-1-(2-hydroxyethyl)-4-(4-pyridinyl)-1H-pyrazol-5-yl]-2(1H)-pyridinone], 250 to 251 °C.
Consider `O=C(O)C1CC1c1c(-c2ccncc2)c(-c2ccc(F)cc2)nn1CCO` (stereo not shown) [Example A-197, 2-[3-(4-fluorophenyl)-1-(2-hydroxyethyl)-4-(4-pyridinyl)-1H-pyrazol-5-yl]cyclopropanecarboxylic acid], for which the melting point is 253 to 255 °C.
As for `Nc1nccc(-c2cn[nH]c2-c2ccc(F)cc2)n1` [Example A-306, 4-[3-(4-fluorophenyl)-1H-pyrazol-4-yl]-2-pyrimidinamine], the melting point is 273 to 274 °C.
The compound `Cn1nc(-c2ccc(F)cc2)c(-c2ccncc2)c1C1CC1` [Example A-191] displayed a melting point of 129 to 130 °C.
The compound `NNc1nccc(-c2cn[nH]c2-c2ccc(F)cc2)n1` [Example A-300, 4-[3-(4-fluorophenyl)-1H-pyrazol-4-yl]-2(1H)-pyrimidinone hydrazone] showed a melting point of 149 to 150 °C.
Take `CN1CCN(c2n[nH]c(-c3cccc(C(F)(F)F)c3)c2-c2ccncc2)CC1` [Example A-424]: the melting point lay within 212.6 to 213.7 °C.
The result for `CN1CCN(c2[nH]nc(-c3ccc(F)cc3)c2-c2ccncc2)CC1` (hydrate or solvate) [Example A-317, 1-[5-(4-fluorophenyl)-4-(4-pyridinyl)-1H-pyrazol-3-yl]-4-methylpiperazine, dihydrate] reads 262 to 264 °C.
Compound `COc1cc(-c2c(-c3ccncc3)c(-c3ccc(F)cc3)nn2CCO)ccn1` [Example A-193, 3-(4-fluorophenyl)-5-(2-methoxy-4-pyridinyl)-4-(4-pyridinyl)-1H-pyrazole-1-ethanol] came in with a melting point of 168 to 169 °C.
Regarding `CC(=O)n1ccc(-c2c(-c3ccncc3)c(-c3ccc(F)cc3)nn2CCO)cc1=O` [Example A-195, 1-acetyl-4-[3-(4-fluorophenyl)-1-(2-hydroxyethyl)-4-(4-pyridinyl)-1H-pyrazol-5-yl]-2(1H)-pyridinone], the melting point lay within 220 to 221 °C.
The result for `Clc1cccc(-c2n[nH]cc2-c2ccnc(NCCc3ccccc3)c2)c1` [Example A-221, 4-[3-(3-chlorophenyl)-1H-pyrazol-4-yl]-N-(phenylethyl)-2-pyridinamine] reads 185 to 186 °C; that for `Cc1cc(-c2n[nH]cc2-c2ccncc2)ccc1Cl` [Example A-199, 4-[3-(4-chloro-3-methylphenyl)-1H-pyrazol-yl]pyridine], 198.17 °C; that for `CN(C)c1nccc(-c2cn[nH]c2-c2ccc(F)cc2)n1` [Example A-301, 4-[3-(4-fluorophenyl)-1H-pyrazol-4-yl]-N,N-dimethyl-2-pyrimidinamine], 155 to 156 °C.
The compound `NC(=O)c1cc(-c2cn[nH]c2-c2ccc(F)cc2)ccn1` [Example A-223, 4-[3-(4-fluorophenyl)-1H-pyrazol-4-yl]-2-pyridinecarboxamide] returned a melting point of 230 to 231 °C.
Compound `Fc1cccc(-c2[nH]ncc2-c2ccncn2)c1` [Example A-311, 4-[3-(3-fluorophenyl)-1H-pyrazol-4-yl]pyrimidine] gave a melting point of 168.58 °C.
Turning to `NNc1cc(-c2c[nH]nc2-c2cccc(Cl)c2)ccn1` [Example A-219, 4-[3-(3-chlorophenyl)-1H-pyrazol-4-yl]-2(1H)-pyridinone hydrazone], the melting point fell in the range of 163 to 164 °C.
The result for `Clc1ccc(-c2[nH]nc(N3CCNCC3)c2-c2ccncc2)cc1` [Example A-328, 1-[5-(4-chlorophenyl)-4-(4-pyridinyl)-1H-pyrazol-3-yl]piperazine] reads 264 to 265 °C; that for `CN1CCN(c2n[nH]c(-c3ccc(F)cc3)c2-c2ccncc2)CC1.O.O` (hydrate or solvate), 238 to 240 °C.
The result for `Fc1ccc(-c2n[nH]cc2-c2ccnc(NCc3ccccc3)n2)cc1` [Example A-303, 4-[3-(4-fluorophenyl)-1H-pyrazol-4-yl]-N-(phenylmethyl)-2-pyrimidinamine] reads 216 to 217 °C.
For the compound `CN1CCN(c2n[nH]c(-c3ccc(N(C)C)cc3)c2-c2ccncc2)CC1` [Example A-421, 1-[5-(4-dimethylaminophenyl)-4-(4-pyridinyl)-1H-pyrazol-3-yl]-4-methylpiperazine], the melting point was > 300 °C (dec.).
Then `CCN(CC)c1n[nH]c(-c2ccc(Cl)cc2)c1-c1ccncc1` [Example A-163, 5-(4-chlorophenyl)-N,N-diethyl-4-(4-pyridinyl)-1H-pyrazol-3-amine], with 260 to 261 °C; and `Cc1cccc(-c2[nH]ncc2-c2ccncn2)c1` [Example A-309, 4-[3-(3-methylphenyl)-1H-pyrazol-4-yl]pyrimidine], with 151.67 °C; and `CCOC(=O)Nc1nccc(-c2cn[nH]c2-c2ccc(F)cc2)n1` [Example A-308, Ethyl [4-[3-(4-fluorophenyl)-1H-pyrazol-4-yl]-2-pyrimidinyl]carbamate], with 163 to 165 °C.
Then `Fc1ccc(-c2[nH]ncc2-c2ccncn2)cc1` [Example A-312, 4-[3-(4-fluorophenyl)-1H-pyrazol-4-yl]pyrimidine], with 191.47 °C.
The result for `Cc1ccc(S(=O)(=O)Nc2[nH]nc(-c3ccc(Cl)cc3)c2-c2ccncc2)cc1` [Example A-484] reads 284.3 to 284.4 °C; that for `CN1CCN(c2n[nH]c(-c3cccc(C#N)c3)c2-c2ccncc2)CC1` [Example A-422, 1-[5-(3-cyanophenyl)-4-(4-pyrdinyl)-1H-pyrazol-3-yl]4-methylpiperazine], 223.4 to 224.3 °C; that for `CN1CCN(c2[nH]nc(C3CCCCC3)c2-c2ccncc2)CC1` [Example A-485, 1-[cyclohexyl-4-(4-pyridinyl)-1H-pyrazol-3-yl]-4-methylpiperazine], > 300 °C (dec.).
The compound `Cc1nn(C)c(-c2ccc(Cl)cc2)c1-c1ccncc1` [Example A-32, 4-[5-(4-chlorophenyl)-1,3-dimethyl-1H-pyrazol-4-yl]pyridine] registered a melting point of 88.6 °C.
Turning to `C#CCn1nc(N2CCNCC2)c(-c2ccncc2)c1-c1ccc(Cl)cc1` (as salt: hydrochloride) (hydrate or solvate) [Example A-318, 1-[5-(4-chlorophenyl)-4-(4-pyridinyl)-1-(2-propynyl)-1H-pyrazol-3-yl]piperazine, trihydrochloride monohydrate], the melting point is 231 to 233 °C (dec.).
The result for `Fc1ccc(-c2[nH]ncc2-c2ccnc(NC3CC3)n2)cc1` [Example A-304, N-cyclopropyl-4-[3-(4-fluorophenyl)-1H-pyrazol-4-yl]-2-pyrimidinamine] reads 203 to 204 °C.
Then `Cc1n[nH]c(-c2c(F)cccc2F)c1-c1ccncc1` [Example A-184, 4-[3-(2,6-difluorophenyl)-5-methyl-1H-pyrazol-4-yl]pyridine], with 236.67 °C; and `CNc1nccc(-c2c[nH]nc2-c2ccc(F)cc2)n1` [Example A-302, 4-[3-(4-fluorophenyl)-1H-pyrazol-4-yl]-N-methyl-2-pyrimidinamine], with 217 to 218 °C.
